Results on 21 compounds are retold here after US9115148B2, “Spirocyclic derivatives as histone deacetylase inhibitors” (DAC S.R.L., priority 2008, dated 2015).

Where only a bound is given, the exact number is not on record here.

The test system of assay [1] is HDAC (nuclear fraction of Hela cells). The assay can be described thus: Assay of enzyme inhibition of HDAC (BIOMOL Kit). The format is biochemical. As to conditions: substrate 200 μM, 15 min at RT. The procedure:
2.2 Assay of Enzyme Inhibition of HDAC
The in-vitro activity of HDAC inhibitors was assayed using a BIOMOL Kit, according to the instructions from the manufacturer (Biomolecular Research Laborator). 15 μl of 30× diluted nuclear fraction of Hela cells, was diluted to 50 μl with the assay buffer containing the HDAC inhibitor and the substrate (lysine with acetylated amino group on the side chain) at a concentration of 200 μM. The samples were incubated for 15 min at RT and then exposed to a developer (10 min at RT). In this last step a fluorophore was produced, whose fluorescence was measured using an excitation wavelength of 355 nm and an emission at 460 nm. The IC50 was calculated using GraphPad Software.

Another assay has as its system K562 cells. The assay can be described thus: Cell growth, CellTiter-Glo Luminescent Cell Viability Assay, K562. It counts as cell-based. As to conditions: Homo sapiens, 72 h incubation, read-out: IC50 antiproliferative assay K562. The source says:
(§1) CellTiter-Glo® Luminescent Cell Viability Assay (Promega) is a homogeneous method of determining the number of viable cells in culture based on quantitation of the present ATP, which indicates the presence of metabolically active cells. The homogeneous assay procedure involves addition of a single reagent (CellTiter-Glo® Reagent) directly to the cells, which leads to cell lysis and generation of a luminescent signal proportional to the amount of the ATP and the number of cells present in culture. The assay relies on the properties of a proprietary thermostable luciferase (Ultra-Glo® recombinant luciferase), which generates a luminescent signal.
(§2) K562, A549 and HCT-116 cells, in exponential growth, were incubated for 72 h with different concentrations of the inhibitors. After 72 h, a volume of CellTiter-Glo® Reagent equal to the volume of cell culture medium was added. The content was mixed for 2 min to induce cell lysis. The luminescence was recorded after further 10 min at RT in order to obtain a stabilized luminescent signal.
(§3) The IC50 was calculated using GraphPad Software.
(§4) IC50 results were allocated to one of 3 ranges as follows: Range A: IC50≦1.0 μM; Range B: from 1.0 to 3.0 μM; Range C: IC50≧3.0 μM.
Background: In ATP-based viability assays light output follows the ATP content of the culture.

The next assay relates to A549 cells. The assay can be described thus: Cell growth, CellTiter-Glo Luminescent Cell Viability Assay, A549. The format is cell-based. As to conditions: Homo sapiens, 72 h incubation, read-out: IC50 antiproliferative assay A549.
Description: as §1, §2, §3, §4

A further assay concerns HCT-116 cells. The assay can be described thus: Cell growth, CellTiter-Glo Luminescent Cell Viability Assay, HCT-116. It counts as cell-based. As to conditions: Homo sapiens, HCT116 cells, 72 h incubation, read-out: IC50 antiproliferative assay HCT116.
Description: as §1, §2, §3, §4

In general, IC50 refers to the concentration that gives 50% inhibition. Regarding `O=C(/C=C/c1ccc2c(c1)C(=O)CC1(CCNCC1)O2)NO` [Example 1, (E)-3-{4-oxo-spiro[chromane-2,4′-piperidine]-6-yl}-N-hydroxy-acrylamide], the IC50 is less than 100 nM in assay [1], no less than 3000 nM with K562 cells, 1000 to 3000 nM with A549 cells and 1000 to 3000 nM in the assay with HCT-116 cells.
Turning to `CN1C(=O)c2cc(/C=C/C(=O)NO)ccc2OC12CCN(Cc1ccccc1)CC2` [Example 76, (E)-3-{1′-Benzyl-3,4-dihydro-3-methyl-4-oxo-spiro[2H-(1,3)-benzoxazine-2,4′-piperidin]-6-yl}-N-hydroxy-acrylamide], the IC50 in assay [1] is 100 to 1000 nM; with K562 cells, 1000 to 3000 nM; with A549 cells, 1000 to 3000 nM; in the assay with HCT-116 cells it was no more than 1000 nM.
For `O=C(/C=C/c1ccc2c(c1)C(=O)C1(CCN(C(=O)c3ccccc3)CC1)O2)NO` [Example 23, (E)-3-{1′-Benzoyl-3-oxo-spiro[benzofuran-2(3H), 4′-piperidin]-5-yl}-N-hydroxy-acrylamide], the IC50 was greater than 1000 nM in assay [1], no less than 3000 nM in the assay on K562 cells, no less than 3000 nM with A549 cells and no less than 3000 nM in the assay on HCT-116 cells.
For the compound `COc1ccc(CCN2CCC3(CC2)CC(=O)c2cc(/C=C/C(=O)NO)ccc2O3)cc1` [Example 58, (E)-3-{1′-[2-(4-Methoxy-phenyl)-ethyl]-4-oxo-spiro[chromane-2,4′-piperidine]-6-yl}-N-hydroxy-acrylamide], the IC50 in assay [1] was less than 100 nM; with K562 cells, no more than 1000 nM; in the assay with A549 cells, no more than 1000 nM; with HCT-116 cells, no more than 1000 nM.
Consider `Nc1ccc(CCN2CCC3(CC2)CC(=O)c2cc(/C=C/C(=O)NO)ccc2O3)cc1` [Example 62, (E)-3-{1′-[2-(4-Amino-phenyl)-ethyl]-4-oxo-spiro[chromane-2,4′-piperidine]-6-yl}-N-hydroxy-acrylamide], for which the concentration for half-maximal inhibition (IC50) in assay [1] is less than 100 nM; with K562 cells, no more than 1000 nM; with A549 cells, no more than 1000 nM; in the assay with HCT-116 cells it was no more than 1000 nM.
With `O=C(/C=C/c1ccc2c(c1)C(=O)N(Cc1ccccc1)C1(CCN(CCc3ccccc3)CC1)O2)NO` [Example 84, (E)-3-{1′-(2-Phenyl-ethyl)-3,4-dihydro-3-benzyl-4-oxo-spiro[2H-(1,3)-benzoxazine-2,4′-piperidin]-6-yl}-N-hydroxy-acrylamide], the half-maximal inhibitory concentration (IC50) in assay [1] is 100 to 1000 nM; with K562 cells, 1000 to 3000 nM; in the assay with A549 cells, 1000 to 3000 nM; in the assay with HCT-116 cells it was 1000 to 3000 nM.
As for `Cc1ccc(CN2CCC3(CC2)CC(=O)c2cc(/C=C/C(=O)NO)ccc2O3)cc1` [Example 30, (E)-3-{1′-(4-Methyl-benzyl)-4-oxo-spiro[chromane-2,4′-piperidine]-6-yl}-N-hydroxy-acrylamide], the IC50 in assay [1] is 100 to 1000 nM; in the assay with K562 cells it was no more than 1000 nM; with A549 cells, 1000 to 3000 nM; with HCT-116 cells, no more than 1000 nM.
As for `O=C(/C=C/c1ccc2c(c1)C(=O)CC1(CCN(Cc3ccccc3F)CC1)O2)NO` [Example 34, (E)-3-{1′-(2-Fluoro-benzyl)-4-oxo-spiro[chromane-2,4′-piperidine]-6-yl}-N-hydroxy-acrylamide], the IC50 was 100 to 1000 nM in assay [1], no more than 1000 nM in the assay on K562 cells, 1000 to 3000 nM with A549 cells and no more than 1000 nM in the assay on HCT-116 cells.
Take `CN1CCC2(CC1)Oc1ccc(/C=C/C(=O)NO)cc1C(=O)N2C` [Example 78, (E)-3-{1′-Methyl-3,4-dihydro-3-methyl-4-oxo-spiro[2H-(1,3)-benzoxazine-2,4′-piperidin]-6-yl}-N-hydroxy-acrylamide]: the IC50 was 100 to 1000 nM in assay [1], 1000 to 3000 nM in the assay on K562 cells, no less than 3000 nM in the assay with A549 cells and 1000 to 3000 nM in the assay on HCT-116 cells.
Turning to `O=C(/C=C/c1ccc2c(c1)C(=O)CC1(CCN(C(=O)c3ccccc3)CC1)O2)NO` [Example 4, (E)-3-{1′-Benzoyl-4-oxo-spiro[chromane-2,4′-piperidine]-6-yl}-N-hydroxy-acrylamide], the IC50 is 100 to 1000 nM in assay [1], 1000 to 3000 nM in the assay with K562 cells, no less than 3000 nM with A549 cells and 1000 to 3000 nM in the assay with HCT-116 cells.
As for `O=C(/C=C/c1ccc2c(c1)C(=O)C1(CCN(Cc3ccccc3)CC1)O2)NO` [Example 21, (E)-3-{1′-Benzyl-3-oxo-spiro[benzofuran-2(3H), 4′-piperidin]-5-yl}-N-hydroxy-acrylamide], the half-maximal inhibitory concentration (IC50) is 100 to 1000 nM in assay [1], no less than 3000 nM with K562 cells, no less than 3000 nM in the assay with A549 cells and no less than 3000 nM in the assay with HCT-116 cells.
For `COc1ccccc1CN1CCC2(CC1)CC(=O)c1cc(/C=C/C(=O)NO)ccc1O2` [Example 31, (E)-3-{1′-(2-Methoxy-benzyl)-4-oxo-spiro[chromane-2,4′-piperidine]-6-yl}-N-hydroxy-acrylamide], the half-inhibitory concentration (IC50) in assay [1] was 100 to 1000 nM; in the assay with K562 cells, no more than 1000 nM; in the assay with A549 cells, no more than 1000 nM; with HCT-116 cells, no more than 1000 nM.
Turning to `O=C(/C=C/c1ccc2c(c1)CCC1(CCN(Cc3ccccc3)CC1)O2)NO` [Example 13, (E)-3-{1′-Benzyl-spiro[chromane-2,4′-piperidine]-6-yl}-N-hydroxy-acrylamide], the concentration for half-maximal inhibition (IC50) is greater than 1000 nM in assay [1], no less than 3000 nM with K562 cells, no less than 3000 nM in the assay on A549 cells and no less than 3000 nM in the assay on HCT-116 cells.
In the case of `CN1CCC2(CC1)NC(=O)c1cc(/C=C/C(=O)NO)ccc1O2` [Example 73, (E)-3-{1′-Methyl-3,4-dihydro-4-oxo-spiro[2H-(1,3)-benzoxazine-2,4′-piperidin]-6-yl}-N-hydroxy-acrylamide], the concentration for half-maximal inhibition (IC50) in assay [1] is less than 100 nM; in the assay with K562 cells, 1000 to 3000 nM; with A549 cells it was 1000 to 3000 nM; in the assay on HCT-116 cells, no more than 1000 nM.
Turning to `CN1C(=O)c2cc(/C=C/C(=O)NO)ccc2OC12CCNCC2` [Example 79, (E)-3-{3,4-Dihydro-3-methyl-4-oxo-spiro[2H-(1,3)-benzoxazine-2,4′-piperidin]-6-yl}-N-hydroxy-acrylamide], the IC50 was 100 to 1000 nM in assay [1], no less than 3000 nM in the assay on K562 cells, no less than 3000 nM in the assay on A549 cells and no less than 3000 nM in the assay on HCT-116 cells.
Consider `O=C(/C=C/c1ccc2c(c1)C(=O)NC1(CCN(Cc3ccccc3)CC1)O2)NO` [Example 25, (E)-3-{1′-Benzyl-3,4-dihydro-4-oxo-spiro[2H-(1,3)-benzoxazine-2,4′-piperidin]-6-yl}-N-hydroxy-acrylamide], for which the IC50 in assay [1] was less than 100 nM; with K562 cells, no more than 1000 nM; with A549 cells, 1000 to 3000 nM; with HCT-116 cells it was no more than 1000 nM.
As to `CC(C)N1CCC2(CC1)CC(=O)c1cc(/C=C/C(=O)NO)ccc1O2` [Example 69, (E)-3-{1′-Isopropyl-4-oxo-spiro[chromane-2,4′-piperidine]-6-yl}-N-hydroxy-acrylamide], the IC50 in assay [1] was 100 to 1000 nM; with K562 cells, no more than 1000 nM; in the assay on A549 cells, no more than 1000 nM; in the assay on HCT-116 cells, no more than 1000 nM.
Regarding `O=C(/C=C/c1ccc2c(c1)C(=O)CC1(CCN(CCc3ccc(F)cc3)CC1)O2)NO` [Example 56, (E)-3-{1′-[2-(4-Fluoro-phenyl)-ethyl]-4-oxo-spiro[chromane-2,4′-piperidine]-6-yl}-N-hydroxy-acrylamide], the 50% inhibitory concentration (IC50) in assay [1] was less than 100 nM; in the assay on K562 cells, no more than 1000 nM; in the assay on A549 cells, no more than 1000 nM; in the assay with HCT-116 cells it was no more than 1000 nM.
`O=C(/C=C/c1ccc2c(c1)C(=O)NC1(CCN(Cc3ccc(F)cc3)CC1)O2)NO` [Example 74, (E)-3-{1′-(4-Fluoro-benzyl)-3,4-dihydro-4-oxo-spiro[2H-(1,3)-benzoxazine-2,4′-piperidin]-6-yl}-N-hydroxy-acrylamide]: the IC50 in assay [1] is 100 to 1000 nM; in the assay with K562 cells, no more than 1000 nM; with A549 cells, 1000 to 3000 nM; in the assay on HCT-116 cells, no more than 1000 nM.
Consider `O=C(/C=C/c1ccc2c(c1)C(=NOCc1ccccc1)CC1(CCN(Cc3ccccc3)CC1)O2)NO` (racemic) [Example 17, (E)-3-{1′-Benzyl-4-benzyloxyimino-spiro[chromane-2,4′-piperidine]-6-yl}-N-hydroxy-acrylamide], for which the 50% inhibitory concentration (IC50) in assay [1] was greater than 1000 nM; in the assay with K562 cells, 1000 to 3000 nM; with A549 cells, 1000 to 3000 nM; with HCT-116 cells, 1000 to 3000 nM.
With `COc1cccc(CCN2CCC3(CC2)CC(=O)c2cc(/C=C/C(=O)NO)ccc2O3)c1` [Example 60, (E)-3-{1′-[2-(3-Methoxy-phenyl)-ethyl]-4-oxo-spiro[chromane-2,4′-piperidine]-6-yl}-N-hydroxy-acrylamide], the half-maximal inhibitory concentration (IC50) is 100 to 1000 nM in assay [1], no more than 1000 nM with K562 cells, no more than 1000 nM in the assay on A549 cells and no more than 1000 nM in the assay on HCT-116 cells.
